Source: patent US7323489B2, “Proline ester and preparation containing the same for percutaneous administration” (Toaeiyo Ltd., priority 2002, dated 2008)

Columns and labels:
[1] = system: three-dimensional cultured human skin model (LSE-high, Toyobo Co., Ltd.); experiment: Metabolism test by use of cultured human skin; format: in vitro ADME; conditions: receptor phase PBS pH 7.4, 24 hours, 1.0 mass % in isopropyl myristate, 200 μL applied, 37° C.
Protocol: A sample of a three-dimensional cultured human skin model (LSE-high, Toyobo Co., Ltd.) was set in a vertical diffusion cell whose temperature was maintained at 37° C., and the receptor phase of the cell was filled with 7 mL isotonic phosphate buffer (PBS, pH 7.4). The cell was allowed to stand for one hour. Each of Inventive Compounds 1 to 3 and enalapril (serving as a Comparative Example) was dissolved or suspended in isopropyl myristate so as to attain a concentration of 1.0 mass %. The solution (200 μL) was applied to the skin sample, whereby the test started. When 24 hours had passed after the test started, the concentrations of proline esters or enalapril (i.e., a prodrug of enalaprilat) which remained unchanged, and the transformed product enalaprilat contained in PBS in the receptor phase were determined through HPLC. From the obtained data, concentration ratio of “proline esters or enalapril”: “enalaprilat” was calculated (presence ratio).

[2] = Stability test (storage in isopropyl myristate, HPLC peak area ratio); format: physicochemical
Protocol: About 5 mg of each of Inventive Compounds 1 to 5 and enalapril was put in a glass vial. Isopropyl myristate (100 μL) was added, to thereby yield a solution (or suspension). The vial was tightly sealed and stored in a 60° C. thermostatic chamber for one week. Methanol was added to the solution contained in the vial until the total volume of the solution mixture became 100 mL. The resultant solution was employed as a test solution to be subjected to an HPLC analysis. Peak area ratio (expressed by percentage) of each compound with respect to a sum of all the obtained peak areas was calculated.

[3] = in the skin and in the plasma; cited from earlier work
[4] = storage at 60° C. for 1 week, HPLC peak area ratio

Row | SMILES | Presence ratio: proline ester or enalapril (unchanged) part of concentration ratio [1] | Area ratio: Closed ring product [2, 4] | Area ratio: Enalaprilat [2, 4] | Area ratio: Proline ester compound [2, 4] | Stability on storage (in words) ([2]; 60° C., one week) | Area ratio: Enalapril [2, 4] | Conversion of percutaneously absorbed enalapril to enalaprilat (in words) [3]
1 | C[C@H](N[C@@H](CCc1ccccc1)C(=O)O)C(=O)N1CCC[C@H]1C(=O)OCCO [Inventive Compound 1, 1-[N-[(1S)-1-Carboxy-3-phenylpropyl]-L-alanyl]-L-proline 2-hydroxyethyl ester] | 23.5 | 0.0% | 0.0% | 91.8% | – | – | –
2 | COCCOCCOC(=O)[C@@H]1CCCN1C(=O)[C@H](C)N[C@@H](CCc1ccccc1)C(=O)O [Inventive Compound 5, 1-[N-[(1S)-1-Carboxy-3-phenylpropyl]-L-alanyl]-L-proline 2-(2-methoxyethoxy)ethyl ester] | – | 0.0% | 0.0% | 94.2% | – | – | –
3 | C[C@H](N[C@@H](CCc1ccccc1)C(=O)O)C(=O)N1CCC[C@H]1C(=O)OCCCCO [Inventive Compound 3, 1-[N-[(1S)-1-Carboxy-3-phenylpropyl)-L-alanyl]-L-proline 4-hydroxybutyl ester] | 30.4 | 0.0% | 0.0% | 94.4% | – | – | –
4 | COCCOC(=O)[C@@H]1CCCN1C(=O)[C@H](C)N[C@@H](CCc1ccccc1)C(=O)O [Inventive Compound 4, 1-[N-[(1S)-1-Carboxy-3-phenylpropyl]-L-alanyl]-L-proline 2-methoxyethyl ester] | – | 0.0% | 0.0% | 99.1% | – | – | –
5 | CCOC(=O)[C@H](CCc1ccccc1)N[C@@H](C)C(=O)N1CCC[C@H]1C(=O)O [Enalapril, reference compound] | 98.8 | 48.4% | 0.0% | – | completely degraded | 0.0% | not converted to enalaprilat
6 | C[C@H](N[C@@H](CCc1ccccc1)C(=O)O)C(=O)N1CCC[C@H]1C(=O)OCCCO [Inventive Compound 2, 1-[N-[(1S)-1-Carboxy-3-phenylpropyl]-L-alanyl]-L-proline 3-hydroxypropyl ester] | 36.3 | 0.0% | 0.0% | 96.7% | – | – | –
